Results reported in ChEMBL document CHEMBL6109162, “Discovery of Highly Potent BET Inhibitors based on a Tractable Tricyclic Scaffold” (ACS Med Chem Lett, 2025).

How the values were obtained:
[1] = target: T1, Bromodomain-containing protein 4 (Homo sapiens, UniProt O60885); test: Inhibition of BRD4 (unknown origin) by FRET assay
[2] = target: T1, Bromodomain-containing protein 4; test: Inhibition of BRD4 BD1 (unknown origin) by FRET assay

Structure (SMILES) | IC50 [1] [nM] | IC50 [2] [nM]
CCS(=O)(=O)Nc1ccc(Oc2ccc(F)cc2F)c(-c2cn(C)c(=O)c3[nH]ccc23)c1 [MIVEBRESIB] | 1.51 | –
Cc1nnn(C)c1-c1cnc2c3ccc(C(C)(C)O)cc3n([C@@H](c3ccccc3)C3CCOCC3)c2c1 | – | 2.88
